Earlier results as cited in patent publication US20250009670A1, “Stable Solid Oral Formulation Of Tafamidis Or Pharmaceutically Acceptable Salt Thereof” (Navinta, LLC, priority 2023, published 2025).

Structure (SMILES): O=C(O)c1ccc2nc(-c3cc(Cl)cc(Cl)c3)oc2c1 [Tafamidis, 2-(3,5-dichlorophenyl)-1,3-benzoxazole-6-carboxylic acid]
- aqueous solubility: low aqueous solubility
